pIC50: −log10 of the molar value.
Target: human LPA1 receptor (Homo sapiens (Human), UniProt Q92633)
Assay: Beta-arrestin recruitment assay to determine IC50 values for human LPAR1
Assay type: cell-based
Settings: antagonist mode, Tango EDG2-bla U2OS cells, LPA 18:1 500 nM final
Method in brief: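 Antagonist IC50 = concentration giving 50% inhibition of maximal LPA response. Read-out is beta-lactamase reporter activity after arrestin-protease recruitment in U2OS cells bearing LPA1-TEV-Gal4-VP16 construct; cells pre-incubated 20 h, 37 °C, 5% CO2.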

Chain of human LPA1 receptor (Q92633 whole entry): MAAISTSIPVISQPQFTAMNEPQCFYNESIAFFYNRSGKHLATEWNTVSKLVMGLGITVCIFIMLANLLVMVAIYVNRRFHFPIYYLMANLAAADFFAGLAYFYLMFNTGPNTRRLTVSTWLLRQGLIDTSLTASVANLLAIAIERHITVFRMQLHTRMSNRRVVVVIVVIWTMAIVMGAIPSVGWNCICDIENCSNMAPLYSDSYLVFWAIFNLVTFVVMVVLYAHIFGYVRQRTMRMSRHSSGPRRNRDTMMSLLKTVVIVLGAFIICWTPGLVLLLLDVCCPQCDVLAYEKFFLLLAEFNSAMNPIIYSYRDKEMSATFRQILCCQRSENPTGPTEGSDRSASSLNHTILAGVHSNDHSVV

pIC50	SMILES
6.71	Cc1ccc(NC(=O)C2(c3ccccc3C(C)C)CN(CCN(C)CC(=O)O)C2)c(OC(F)F)n1 [Ex 11-82, N-(2-(3-((2-(difluoromethoxy)-6-methylpyridin-3-yl)carbamoyl)-3-(2-isopropylphenyl)azetidin-1-yl)ethyl)-N-methylglycine]
7.77	Cc1ccc(NC(=O)C2(c3ccccc3C(C)C)CN(C(=O)CC3(O)COC3)C2)c(OC(F)F)n1 [Ex 12-13, N-(2-(difluoromethoxy)-6-methylpyridin-3-yl)-1-(2-(3-hydroxyoxetan-3-yl)acetyl)-3-(2-isopropylphenyl)azetidine-3-carboxamide]
7.92	Cc1ccc(NC(=O)C2(c3ccccc3C(C)C)CN(c3ccc(C(=O)O)nn3)C2)c(OC(F)F)n1 [Ex 18-7, 6-(3-((2-(difluoromethoxy)-6-methylpyridin-3-yl)carbamoyl)-3-(2-isopropylphenyl)azetidin-1-yl)pyridazine-3-carboxylic acid]
7.38	COC(=O)C(C)(C)COC(=O)N1CC(C(=O)Nc2ccc(C)nc2OC(F)F)(c2ccccc2C(C)C)C1 [Ex 14-9, 3-methoxy-2,2-dimethyl-3-oxopropyl 3-((2-(difluoromethoxy)-6-methylpyridin-3-yl)carbamoyl)-3-(2-isopropylphenyl)azetidine-1-carboxylate]
6.81	Cc1ccc(NC(=O)C2(c3ccccc3C(C)C)CN(C(=O)CNC(N)=O)C2)c(OC(F)F)n1 [Ex 12-10, 1-(carbamoylglycyl)-N-(2-(difluoromethoxy)-6-methylpyridin-3-yl)-3-(2-isopropylphenyl)azetidine-3-carboxamide]
8.15	Cc1ccc(NC(=O)C2(c3ccccc3C(C)C)CN(S(=O)(=O)CC(=O)O)C2)c(OC(F)F)n1 [Ex 13-1, 2-((3-((2-(difluoromethoxy)-6-methylpyridin-3-yl)carbamoyl)-3-(2-isopropylphenyl)azetidin-1-yl)sulfonyl)acetic acid]
7.46	CC(=O)N(O)CCC(=O)N1CC(C(=O)Nc2ccc(C)nc2OC(F)F)(c2ccccc2C(C)C)C1 [Ex 12-132, N-(2-(difluoromethoxy)-6-methylpyridin-3-yl)-1-(3-(N-hydroxyacetamido)propanoyl)-3-(2-isopropylphenyl)azetidine-3-carboxamide]
6.72	Cc1ccc(NC(=O)C2(c3ccccc3C(C)C)CN(CCN(C)C)C2)c(OC(F)F)n1 [Ex 11-78, N-(2-(difluoromethoxy)-6-methylpyridin-3-yl)-1-(2-(dimethylamino)ethyl)-3-(2-isopropylphenyl)azetidine-3-carboxamide]
7.77	Cc1ccc(NC(=O)C2(c3ccccc3C(C)C)CN(C(=O)CNCC3(O)CC3)C2)c(OC(F)F)n1 [Ex 12-57, N-(2-(difluoromethoxy)-6-methylpyridin-3-yl)-1-(((1-hydroxycyclopropyl)methyl)glycyl)-3-(2-isopropylphenyl)azetidine-3-carboxamide]
6.25	CCOC(=O)c1ccnc(N2CC(C(=O)Nc3ccc(C)nc3OC(F)F)(c3ccccc3C(C)C)C2)n1 [Ex 18-14, ethyl 2-(3-((2-(difluoromethoxy)-6-methylpyridin-3-yl)carbamoyl)-3-(2-isopropylphenyl)azetidin-1-yl)pyrimidine-4-carboxylate]
7.05	Cc1ccc(NC(=O)C2(c3ccccc3C3=CCCC3)CN(C(=O)CC(C)(C)C(=O)O)C2)c(OC(F)F)n1 [Ex 31-4, 4-(3-(2-(cyclopent-1-en-1-yl)phenyl)-3-((2-(difluoromethoxy)-6-methylpyridin-3-yl)carbamoyl)azetidin-1-yl)-2,2-dimethyl-4-oxobutanoic acid]
7.39	Cc1ccc(NC(=O)C2(c3ccccc3C(C)C)CN(C(=O)C[C@@H](O)C(=O)O)C2)c(OC(F)F)n1 [Ex 12-35, (R)-4-(3-((2-(difluoromethoxy)-6-methylpyridin-3-yl)carbamoyl)-3-(2-isopropylphenyl)azetidin-1-yl)-2-hydroxy-4-oxobutanoic acid]
